Experimental data taken from patent US20240217981A1, “CRYSTALLINE COMPOUND OF MUSCARINIC ACETYLCHOLINE M1 RECEPTOR ANTAGONISTS” (Pipeline Therapeutics, Inc., priority 2021, published 2024).
In brackets after ≈: the same amount, converted by molar mass. Like-named read-outs stand apart in the source and are kept apart here.

Experiments:
human M1 receptor = biological target: T1, human M1 receptor (Homo sapiens, UniProt P11229); experiment: In vitro functional assay of muscarinic acetylcholine receptor activity (aequorin calcium flux, reversal of acetylcholine EC50 response); assay type: cell-based
T1 sequence (P11229 1-460): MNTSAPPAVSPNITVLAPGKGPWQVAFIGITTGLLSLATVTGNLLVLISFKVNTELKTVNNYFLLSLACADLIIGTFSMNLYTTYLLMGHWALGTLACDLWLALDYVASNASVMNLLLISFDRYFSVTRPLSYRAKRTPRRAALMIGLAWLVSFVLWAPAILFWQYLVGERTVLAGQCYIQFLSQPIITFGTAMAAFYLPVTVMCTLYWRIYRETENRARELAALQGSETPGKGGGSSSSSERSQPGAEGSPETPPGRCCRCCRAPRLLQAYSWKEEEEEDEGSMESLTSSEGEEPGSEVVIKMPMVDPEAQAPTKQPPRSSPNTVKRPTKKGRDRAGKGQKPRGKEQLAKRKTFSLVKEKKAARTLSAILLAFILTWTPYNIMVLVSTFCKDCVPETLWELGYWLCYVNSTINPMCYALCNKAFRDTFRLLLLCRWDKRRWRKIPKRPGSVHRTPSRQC
Experimental: CHO-K1 cells stably expressing human M1 receptor with aequorin (Perkin Elmer) were grown in F12 media (Gibco) containing 10% FBS (ATCC), 0.4 mg/mL geneticin (Sigma-Aldrich) and 0.25 mg/mL Zeocin (Invitrogen). Cells were grown as per the manufacturer's protocol. For compound testing, cells were grown to confluency and detached gently with Accutase (Sigma-Aldrich) followed by centrifugation for 5 min at 150×g. Cells were then re-suspended in assay buffer (i.e. DMEM/F-12 HEPES without phenol red (Invitrogen) with 0.1% BSA (Sigma-Aldrich)) at a density of 5×10^6 cells/ml. Under sterile conditions, 5 μM coelenterazine (Invitrogen) was added to the cells, mixed, then incubated at room temperature protected from light, with gentle agitation, for 4 h.
Primary compound plates were prepared in 100% DMSO in opaque 96-well plates (VWR) and serially diluted in half log increments. Secondary compound plates were prepared at 3× concentration in assay buffer. […]
The compound and cells were incubated at room temperature for 30 min in the dark. Acetylcholine at the EC50 concentration was added and calcium flux measured using a FlexStation 3 (Molecular Devices). Sigmoidal dose-response curves were generated by measuring […] over 40 sec and calculating the area under the curve. […]

human M2 receptor = biological target: T2, human M2 receptor (Homo sapiens, UniProt P08172); experiment: as above; assay type: cell-based; details: CHO-K1 cells expressing human M2 receptor with aequorin; acetylcholine at EC50
T2 sequence (P08172 1-466): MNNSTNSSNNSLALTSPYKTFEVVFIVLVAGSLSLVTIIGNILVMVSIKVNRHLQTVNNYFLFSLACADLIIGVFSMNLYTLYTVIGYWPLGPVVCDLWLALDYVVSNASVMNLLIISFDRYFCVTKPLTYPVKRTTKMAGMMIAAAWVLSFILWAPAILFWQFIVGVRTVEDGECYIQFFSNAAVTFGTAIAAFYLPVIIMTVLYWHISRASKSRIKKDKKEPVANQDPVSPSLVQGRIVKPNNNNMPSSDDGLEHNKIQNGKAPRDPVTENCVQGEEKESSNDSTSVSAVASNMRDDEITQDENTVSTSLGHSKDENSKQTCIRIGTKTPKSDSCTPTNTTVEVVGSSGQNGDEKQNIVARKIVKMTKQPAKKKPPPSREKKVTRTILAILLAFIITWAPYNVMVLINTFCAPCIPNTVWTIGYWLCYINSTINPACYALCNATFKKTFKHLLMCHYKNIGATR
Experimental: (§1) Primary compound plates were prepared in 100% DMSO in opaque 96-well plates (VWR) and serially diluted in half log increments. Secondary compound plates were prepared at 3× concentration in assay buffer. The compound (6-(3-(4,4-difluoro-4-(2-methoxypyridin-4-yl)butanoyl)-3,8-diazabicyclo[3.2.1]octan-8-yl)nicotinonitrile) was added to white, clear bottom tissue culture treated 96-well plates (Fisher Scientific). Coelenterazine-loaded cells were then added at 5×10^5 cells/well.
(§2) The compound and cells were incubated at room temperature for 30 min in the dark. Acetylcholine at the EC50 concentration was added and calcium flux measured using a FlexStation 3 (Molecular Devices). Sigmoidal dose-response curves were generated by measuring […] over 40 sec and calculating the area under the curve. Dose response curves and IC50 values were generated using Prism (GraphPad). The compound was tested at a final concentration range of […] in 0.10% DMSO.
(§3) CHO-K1 cells stably expressing human M2, M3 and M4 receptors, respectively, with aequorin (Perkin Elmer) were used to assess a test compound's ability to dose-dependently reverse the EC50 acetylcholine response. The IC50 of the compound was calculated from the dose response curve.

human M3 receptor = human M3 receptor (Homo sapiens, UniProt P20309); experiment: as above; assay type: cell-based
human M3 receptor, sequence (P20309 whole entry): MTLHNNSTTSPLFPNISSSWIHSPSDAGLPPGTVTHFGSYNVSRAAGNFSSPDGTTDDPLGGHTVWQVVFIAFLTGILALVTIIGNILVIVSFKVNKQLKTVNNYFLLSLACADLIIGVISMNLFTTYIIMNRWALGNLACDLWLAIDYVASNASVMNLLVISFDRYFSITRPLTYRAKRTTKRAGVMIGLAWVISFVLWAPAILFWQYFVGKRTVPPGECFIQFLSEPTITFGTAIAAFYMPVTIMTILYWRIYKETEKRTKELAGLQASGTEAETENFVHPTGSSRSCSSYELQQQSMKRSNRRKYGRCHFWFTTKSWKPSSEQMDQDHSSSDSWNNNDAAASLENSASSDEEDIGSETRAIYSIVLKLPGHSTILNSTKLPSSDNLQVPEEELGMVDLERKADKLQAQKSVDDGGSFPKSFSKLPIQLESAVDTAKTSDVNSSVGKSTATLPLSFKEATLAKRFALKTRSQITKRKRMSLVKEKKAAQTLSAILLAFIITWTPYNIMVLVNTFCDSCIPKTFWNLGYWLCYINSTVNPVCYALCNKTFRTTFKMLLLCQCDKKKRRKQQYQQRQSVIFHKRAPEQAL
Experimental: as §1, §2, §3

human M4 receptor = biological target: T3, human M4 receptor (Homo sapiens, UniProt P08173); experiment: as above; assay type: cell-based
T3 sequence (P08173 1-479): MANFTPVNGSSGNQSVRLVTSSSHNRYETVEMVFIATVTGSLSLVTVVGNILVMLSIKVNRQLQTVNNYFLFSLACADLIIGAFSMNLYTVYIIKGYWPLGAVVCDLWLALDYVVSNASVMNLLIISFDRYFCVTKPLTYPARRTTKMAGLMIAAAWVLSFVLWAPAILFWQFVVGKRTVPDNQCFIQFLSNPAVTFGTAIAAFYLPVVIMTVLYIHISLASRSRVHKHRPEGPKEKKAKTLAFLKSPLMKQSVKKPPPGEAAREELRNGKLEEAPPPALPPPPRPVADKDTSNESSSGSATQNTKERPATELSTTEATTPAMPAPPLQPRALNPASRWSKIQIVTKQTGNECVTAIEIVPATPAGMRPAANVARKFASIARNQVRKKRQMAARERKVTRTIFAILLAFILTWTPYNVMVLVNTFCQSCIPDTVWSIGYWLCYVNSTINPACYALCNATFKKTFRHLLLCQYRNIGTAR
Experimental: as §1, §2, §3

[1] = Kinetic solubility evaluation; assay type: physicochemical; details: for solubility / solubility at 1 h / solubility at 4 h / solubility at 24 h: thermodynamic from solid; for FC (Form change): residual solid by XRPD; for solubility at 1 h / solubility at 4 h / solubility at 24 h: read-out: S (Solubility of freebase)
Experimental: In these experiments, about 20 mg of Freebase Type A was suspended in 4 mL of FaSSIF, FeSSIF, SGF and H2O, respectively. After rolling at 37° C. for 1 hr, 4 hrs and 24 hrs, the suspension was centrifuged and filtered through a 0.45 μm PTFE membrane. The residual solids were tested by XRPD and the supernatant was tested by HPLC and pH meter. Detailed procedure can be found in Table 15.

[2] = Hygroscopicity evaluation by DVS test; assay type: physicochemical
Experimental: Hygroscopicity of Freebase Type A was evaluated by DVS test. […] For the minus weight change observed in the desorption curve, it might be related to sample loss or instrument fluctuation.

[3] = Physicochemical stability evaluation; details: for Form change: XRPD
Experimental: In these experiments, about 10 mg of Freebase Type A was stored at 25° C./60% RH, 40° C./75% RH for one week and 60° C./sealed for 24 hrs. After storage, the solids were tested by XRPD and HPLC.

[4] = 25° C./60% RH, 40° C./75% RH for one week and 60° C./sealed for 24 hrs

COc1cc(C(F)(F)CCC(=O)N2CC3CCC(C2)N3c2ccc(C#N)cn2)ccn1 [Compound, 6-(3-(4,4-difluoro-4-(2-methoxypyridin-4-yl)butanoyl)-3,8-diazabicyclo[3.2.1]octan-8-yl)nicotinonitrile]
IC50 (human M1 receptor): < 10 nM
IC50 (human M2 receptor): 1000 to 10000 nM
IC50 (human M3 receptor): 100 to 1000 nM
IC50 (human M4 receptor): 100 to 1000 nM
solubility rank order of media, from high to low ([1]; FaSSIF, FeSSIF, SGF and H2O, 37° C.): SGF>FeSSIF>FaSSIF>H2O
form change after rolling in tested media ([1]; XRPD, tested media, 1, 4, and 24 hrs): no form change was observed
solubility ([1]; pH 1.77, simulated gastric fluid, SGF, 37° C., over 1 hr, 4 hrs and 24 hrs, read-out: solubility in SGF): ≤ 150 µg/mL
solubility ([1]; pH 6.95, water, H2O, 37° C., read-out: solubility in H2O): 20 µg/mL (≈ 46.8 µM)
FC (Form change) ([1]; FaSSIF, 37° C., 1 hr): No
FC (Form change) ([1]; FaSSIF, 37° C., 4 hrs): No
FC (Form change) ([1]; FaSSIF, 37° C., 24 hrs): No
FC (Form change) ([1]; FeSSIF, 37° C., 1 hr): No
FC (Form change) ([1]; FeSSIF, 37° C., 4 hrs): No
FC (Form change) ([1]; FeSSIF, 37° C., 24 hrs): No
FC (Form change) ([1]; H2O, 37° C., 1 hr): No
FC (Form change) ([1]; H2O, 37° C., 4 hrs): No
FC (Form change) ([1]; H2O, 37° C., 24 hrs): No
FC (Form change) ([1]; SGF, 37° C., 1 hr): No
FC (Form change) ([1]; SGF, 37° C., 4 hrs): No
FC (Form change) ([1]; SGF, 37° C., 24 hrs): No
solubility at 1 h ([1]; simulated gastric fluid, SGF (pH 1.77), 37° C., 1 hr): 140 µg/mL (≈ 328 µM)
solubility at 4 h ([1]; simulated gastric fluid, SGF (pH 1.77), 37° C., 4 hrs): 150 µg/mL (≈ 351 µM)
solubility at 24 h ([1]; simulated gastric fluid, SGF (pH 1.77), 37° C., 24 hrs): 140 µg/mL (≈ 328 µM)
solubility at 1 h ([1]; FaSSIF (pH 6.47), 37° C., 1 hr): 30 µg/mL (≈ 70.2 µM)
solubility at 4 h ([1]; FaSSIF (pH 6.47), 37° C., 4 hrs): 30 µg/mL (≈ 70.2 µM)
solubility at 24 h ([1]; FaSSIF (pH 6.47), 37° C., 24 hrs): 30 µg/mL (≈ 70.2 µM)
solubility at 1 h ([1]; FeSSIF (pH 4.99), 37° C., 1 hr): 60 µg/mL (≈ 140 µM)
solubility at 4 h ([1]; FeSSIF (pH 4.99), 37° C., 4 hrs): 60 µg/mL (≈ 140 µM)
solubility at 24 h ([1]; FeSSIF (pH 4.99), 37° C., 24 hrs): 60 µg/mL (≈ 140 µM)
solubility at 1 h ([1]; water, H2O (pH 6.95), 37° C., 1 hr): 20 µg/mL (≈ 46.8 µM)
solubility at 4 h ([1]; water, H2O (pH 6.95), 37° C., 4 hrs): 20 µg/mL (≈ 46.8 µM)
solubility at 24 h ([1]; water, H2O (pH 6.95), 37° C., 24 hrs): 20 µg/mL (≈ 46.8 µM)
water uptake ([2]; 80% RH/25° C., sorption cycle from 0% RH to 95% RH): 0.01%
hygroscopicity ([2]; DVS test): non-hygroscopic
form change after the DVS test ([2]; XRPD): no form change was observed
HPLC purity Of initial ([3]; 25° C./60% RH, 1 w): 100.00%
HPLC purity after storage ([3]; 25° C./60% RH, 1 w): 100.00 area %
form change after storage (XRPD) [3, 4]: no form change was observed
purity decrease after storage (HPLC) [3, 4]: no purity decrease was detected
HPLC purity Of initial ([3]; 40° C./75% RH, 1 w): 100.00%
HPLC purity after storage ([3]; 40° C./75% RH, 1 w): 100.00 area %
HPLC purity Of initial ([3]; 60° C./sealed, 24 hrs): 100.00%
HPLC purity after storage ([3]; 60° C./sealed, 24 hrs): 100.00 area %
Form change ([3]; 25° C./60% RH, 1 w): No
Form change ([3]; 40° C./75% RH, 1 w): No
Form change ([3]; 60° C./sealed, 24 hrs): No
